Assay: Randomized double-blind crossover food effect single-dose study: safety and tolerability (flushing, feeling hot)
Format: in vivo, human
Settings: for Subjects reporting flushing: fasted group; for Subjects reporting feeling hot more than for placebo: fed or fasted groups
From the text: (§1) Twenty-four healthy adult volunteers (males and females) participated in the study. Twelve of the subjects received a dosage form of Example 3, once in a fed condition and once in a fasted condition, with a two-week washout between treatments. The fasted dosing was achieved by dosing the subject following an overnight fast while the fed dosing was achieved by dosing the subject after consuming a high fat-content breakfast.
as §1, with “Twelve” for “Twenty-four”, “All twelve” for “Twelve of the”, “5,” for “3,”
as §1, with “Twelve” for “Twenty-four”, “All twelve” for “Twelve of the”, “10,” for “3,”

[1] = Example 3 dosage form, 200 mg single dose
[2] = Example 5 dosage form, 200 mg single dose
[3] = Example 10 dosage form, single dose

In the case of CCN(CC)C(=O)COC(=O)/C=C/C(=O)OC [Compound (1), (N,N-Diethylcarbamoyl)methyl methyl (2E)but-2-ene-1,4-dioate], the “Severity of all adverse events” value [1] is reported as “mild”, the “Tolerability during the trial” value [1] is reported as “well tolerated” and the Subjects reporting flushing (Example 3 dosage form) is reported as “No subjects”. For the same molecule, the “Subjects reporting flushing more frequently than in the fed placebo group” value (Example 3 dosage form) was “One”, the “Subjects reporting feeling hot more than for placebo” value (Example 3 dosage form) was “no subjects” and the “Severity of all adverse events” value [2] was “mild”. For the same molecule, the “Tolerability during the trial” value [2] was “well tolerated”, the Subjects reporting flushing (Example 5 dosage form) was “No subjects” and the “Subjects reporting flushing more frequently than in the fed placebo group” value (Example 5 dosage form) was “Two”. For the same molecule, the “Subjects reporting feeling hot more than for placebo” value (Example 5 dosage form) was “no subjects”, the “Adverse events reported in more than one subject and more frequently than for placebo” value [3] was “flushing and feeling hot” and the “Severity of all adverse events” value [3] was “mild”. The “Tolerability during the trial” value [3] was “well tolerated”.

Reference: patent US20210228525A1, “Methods of Administering Monomethyl Fumarate and Prodrugs Thereof Having Reduced Side Effects” (Arbor Pharmaceuticals, LLC, priority 2012, published 2021)
